According to patent publication US20230295096A1, “PYRAZOLE CARBOXAMIDE COMPOUNDS FOR TREATMENT OF HBV” (ASSEMBLY BIOSCIENCES, INC., priority 2020, published 2023):
Read-outs that look alike come from different tables or passages of the source.

Tested on: HBV
Assay: Viral load production from HepAD38 cells, qPCR of the HBV core sequence in supernatant
Format: cell-based
Settings: HepAD38 cells, 5 days, HBV DNA in supernatant by qPCR
Method in brief: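 EC50 and CC50 come from four-parameter logistic fits of supernatant HBV core DNA (TaqMan qPCR, DNA standards, compared with DMSO wells) and of CellTiter-Glo luminescence.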

[1] = Hepatitis B virus, HePAD38, 120 h, Table 1 ranges, read-out: Activity (viral load lowering EC50)
[2] = Table 1 ranges, read-out: Activity (viral load lowering EC50)

| Structure (SMILES) | EC50 [1] [nM] | further results |
| --- | --- | --- |
| CCS(=O)(=O)NCC1CC2CC(c3nn(C)c(N)c3C(=O)Nc3ccc(F)c(Cl)c3)CC2C1 (stereo not shown) [Example 87, 5-Amino-N-(3-chloro-4-fluorophenyl)-3-(5-(ethylsulfonamidomethyl)octahydropentalen-2-yl)-1-methyl-1H-pyrazole-4-carboxamide] | < 10 | – |
| Cn1nc(C2CC3CC(O)(c4ncccn4)CC3C2)c(C(=O)Nc2ccc(F)c(Cl)c2)c1N (stereo not shown) [Example 175] | < 10 | – |
| Cn1nc(C2CC3CC(CNS(=O)(=O)c4ccc(OC(F)(F)F)cc4)CC3C2)c(C(=O)Nc2ccc(F)c(Cl)c2)c1N (stereo not shown) [Example 84, 5-Amino-N-(3-chloro-4-fluorophenyl)-1-methyl-3-(5-(((4-(trifluoromethoxy)phenyl)sulfonamido)methyl)octahydropentalen-2-yl)-1H-pyrazole-4-carboxamide] | 50 to 500 | – |
| Cn1nc(C2CC3CC(O)(CNc4ncc(F)cn4)CC3C2)c(C(=O)Nc2ccc(F)c(Cl)c2)c1N (stereo not shown) [Example 213] | – | EC50 [2]: 10 to 50 nM |
| Cn1nc(C2CC3CC(O)(c4cn(COP(=O)(O)O)nc4C(F)(F)F)CC3C2)c(C(=O)Nc2ccc(F)c(Cl)c2)c1N (stereo not shown) [Example 157, sodium sodium (4-(5-(5-amino-4-((3-chloro-4-fluorophenyl)carbamoyl)-1-methyl-1H-pyrazol-3-yl)-2-hydroxyoctahydropentalen-2-yl)-3-(trifluoromethyl)-1H-pyrazol-1-yl)methyl phosphate] | < 10 | – |
| Cn1nc(C2CC3CC(CNC(=O)C(C)(C)C4CCOCC4)CC3C2)c(C(=O)Nc2ccc(F)c(Cl)c2)c1N (stereo not shown) [Example 63, 5-Amino-N-(3-chloro-4-fluorophenyl)-1-methyl-3-(5-((2-methyl-2-(tetrahydro-2H-pyran-4-yl)propanamido)methyl)octahydropentalen-2-yl)-1H-pyrazole-4-carboxamide] | 10 to 50 | – |
| Cn1nc(C2CC3CN(c4ncc(C(F)(F)F)s4)CC3C2)c(C(=O)Nc2ccc(F)c(Cl)c2)c1N (stereo not shown) [Example 134, 5-Amino-N-(3-chloro-4-fluorophenyl)-1-methyl-3-(2-(5-(trifluoromethyl)thiazol-2-yl)octahydrocyclopenta[c]pyrrol-5-yl)-1H-pyrazole-4-carboxamide] | 50 to 500 | – |
| CN(C)C(=O)NCC1CC2CC(c3nn(C)c(N)c3C(=O)Nc3ccc(F)c(Cl)c3)CC2C1 (single isomer, unassigned) [Example 43, 5-Amino-N-(3-chloro-4-fluorophenyl)-3-(5-((3,3-dimethylureido)methyl)octahydropentalen-2-yl)-1-methyl-1H-pyrazole-4-carboxamide] | – | EC50 [2]: < 10 nM |
| Cn1nc(C2CC3CC(O)(c4cn(COP(=O)(OC(C)(C)C)OC(C)(C)C)nc4C(F)(F)F)CC3C2)c(C(=O)Nc2ccc(F)c(Cl)c2)c1N (stereo not shown) [Compd. 6-1, (4-(5-(5-amino-4-((3-chloro-4-fluorophenyl)carbamoyl)-1-methyl-1H-pyrazol-3-yl)-2-hydroxyoctahydropentalen-2-yl)-3-(trifluoromethyl)-1H-pyrazol-1-yl)methyl di-tert-butyl phosphate] | 10 to 50 | – |
| Cn1nc(C2CC3CN(c4ncc(C(F)(F)F)cn4)CC3C2)c(C(=O)Nc2ccc(F)c(Cl)c2)c1N (stereo not shown) [Example 133, 5-Amino-N-(3-chloro-4-fluorophenyl)-1-methyl-3-(2-(5-(trifluoromethyl)pyrimidin-2-yl)octahydrocyclopenta[c]pyrrol-5-yl)-1H-pyrazole-4-carboxamide] | 50 to 500 | – |
| Cn1nc(C2CC3CC(O)(c4ccc(F)cc4)CC3C2)c(C(=O)Nc2ccc(F)c(C#N)c2)c1N (stereo not shown) [Example 9, 5-Amino-N-(3-cyano-4-fluorophenyl)-3-(5-(4-fluorophenyl)-5-hydroxyoctahydropentalen-2-yl)-1-methyl-1H-pyrazole-4-carboxamide] | < 10 | – |
| Cn1nc(C2CC3CC(O)(c4ccc(F)c(F)c4)CC3C2)c(C(=O)Nc2ccc(F)c(Cl)c2)c1N (stereo not shown) [Example 12, 5-Amino-N-(3-chloro-4-fluorophenyl)-3-(5-(3,4-difluorophenyl)-5-hydroxyoctahydropentalen-2-yl)-1-methyl-1H-pyrazole-4-carboxamide] | 10 to 50 | – |
| CCn1nccc1C1(O)CC2CC(c3nn(C)c(N)c3C(=O)Nc3ccc(F)c(Cl)c3)CC2C1 (stereo not shown) [Example 196] | < 10 | – |
| CCn1nc(N)cc1C1=CC2CC(c3nn(C)c(N)c3C(=O)Nc3ccc(F)c(Cl)c3)CC2C1 (stereo not shown) [Example 214] | < 10 | – |
| Cn1nc(C2CC3CC(O)(c4ncc(C(F)(F)F)n4C)CC3C2)c(C(=O)Nc2ccc(F)c(Cl)c2)c1N (stereo not shown) [Example 167] | 10 to 50 | – |
| Cn1nc(C2CC3CC(O)(CNc4cc(N)ncn4)CC3C2)c(C(=O)Nc2ccc(F)c(Cl)c2)c1N (single isomer, unassigned) [Example 205A] | – | EC50 [2]: < 10 nM |
| Cn1nc(C2CC3CC(CNC(=O)C(C)(C)O)CC3C2)c(C(=O)Nc2ccc(F)c(Cl)c2)c1N (single isomer, unassigned) [Example 39, 5-Amino-N-(3-chloro-4-fluorophenyl)-3-(5-((2-hydroxy-2-methylpropanamido)methyl)octahydropentalen-2-yl)-1-methyl-1H-pyrazole-4-carboxamide] | < 10 | – |

| Structure (SMILES) | EC50 [1] [nM] | further results |
| --- | --- | --- |
| Cn1nc(C2CC3CC(CNC(=O)CCCN4CCCCC4)CC3C2)c(C(=O)Nc2ccc(F)c(Cl)c2)c1N (stereo not shown) [Example 71, 5-Amino-N-(3-chloro-4-fluorophenyl)-1-methyl-3-(5-((4-(piperidin-1-yl)butanamido)methyl)octahydropentalen-2-yl)-1H-pyrazole-4-carboxamide] | 10 to 50 | – |
| Cn1nnnc1C1(O)CC2CC(c3nn(C)c(N)c3C(=O)Nc3ccc(F)c(Cl)c3)CC2C1 (stereo not shown) [Example 172] | 10 to 50 | – |
| Cn1nc(C2CC3CC(CNC(=O)C4(C)CCC4)CC3C2)c(C(=O)Nc2ccc(F)c(Cl)c2)c1N (stereo not shown) [Example 68, 5-Amino-N-(3-chloro-4-fluorophenyl)-1-methyl-3-(5-((1-methylcyclobutane-1-carboxamido)methyl)octahydropentalen-2-yl)-1H-pyrazole-4-carboxamide] | < 10 | – |
| Cn1nc(C2CC3CC(O)(C(F)(F)S(=O)(=O)c4ccccc4)CC3C2)c(C(=O)Nc2ccc(F)c(Cl)c2)c1N (stereo not shown) [Example 33, 5-Amino-N-(3-chloro-4-fluorophenyl)-3-(5-(difluoro(phenylsulfonyl)methyl)-5-hydroxyoctahydropentalen-2-yl)-1-methyl-1H-pyrazole-4-carboxamide] | 10 to 50 | – |
| C#CC1(O)CC2CC(c3nn(C)c(N)c3C(=O)Nc3ccc(F)c(Cl)c3)CC2C1 (stereo not shown) [Example 22, 5-Amino-N-(3-chloro-4-fluorophenyl)-3-(5-ethynyl-5-hydroxyoctahydropentalen-2-yl)-1-methyl-1H-pyrazole-4-carboxamide] | < 10 | – |
| CC(C)n1nccc1C1(O)CC2CC(c3nn(C)c(N)c3C(=O)Nc3ccc(F)c(Cl)c3)CC2C1 (stereo not shown) [Example 200] | < 10 | – |
| Cn1nc(C2CC3CC(CNC(=O)c4cncc(F)c4)CC3C2)c(C(=O)Nc2ccc(F)c(Cl)c2)c1N (stereo not shown) [Example 61, N-((5-(5-Amino-4-((3-chloro-4-fluorophenyl)carbamoyl)-1-methyl-1H-pyrazol-3-yl)octahydropentalen-2-yl)methyl)-5-fluoronicotinamide] | < 10 | – |
| Cc1cc(C2(O)CC3CC(c4nn(C)c(N)c4C(=O)Nc4ccc(F)c(Cl)c4)CC3C2)on1 (stereo not shown) [Example 180] | < 10 | – |
| CNS(=O)(=O)NCC1CC2CC(c3nn(C)c(N)c3C(=O)Nc3ccc(F)c(Cl)c3)CC2C1 (stereo not shown) [Example 83, 5-Amino-N-(3-chloro-4-fluorophenyl)-1-methyl-3-(5-(((N-methylsulfamoyl)amino)methyl)octahydropentalen-2-yl)-1H-pyrazole-4-carboxamide] | < 10 | – |
| Cn1nc(C2CC3CC(O)(c4c(F)cnn4C)CC3C2)c(C(=O)Nc2ccc(F)c(Cl)c2)c1N (stereo not shown) [Example 209] | < 10 | – |
| Cn1nc(C2CC3CC(O)(c4c[nH]nc4C(F)(F)F)CC3C2)c(C(=O)Nc2ccc(F)c(C#N)c2)c1N (stereo not shown) [Example 222] | < 10 | – |
| Cn1nc(C2CC3CC(CNC(=O)COCCOCCNC(=O)OC(C)(C)C)CC3C2)c(C(=O)Nc2ccc(F)c(Cl)c2)c1N (stereo not shown) [Example 74, tert-Butyl (2-(2-(2-(((5-(5-amino-4-((3-chloro-4-fluorophenyl)carbamoyl)-1-methyl-1H-pyrazol-3-yl)octahydropentalen-2-yl)methyl)amino)-2-oxoethoxy)ethoxy)ethyl)carbamate] | < 10 | – |
| COCCOCCOCCOCCOCCOCCOCCOC(=O)OCn1cc(C2(O)CC3CC(c4nn(C)c(N)c4C(=O)Nc4ccc(F)c(Cl)c4)CC3C2)c(C(F)(F)F)n1 (stereo not shown) [Example 229] | < 10 | – |
| Cn1nc(C2CC3CC(O)(c4ncc[nH]4)CC3C2)c(C(=O)Nc2ccc(F)c(Cl)c2)c1N (stereo not shown) [Example 147] | 10 to 50 | – |
| Cn1nc(C2CC3CC(O)(C(F)(F)S(=O)(=O)c4ccc(Cl)cc4)CC3C2)c(C(=O)Nc2ccc(F)c(Cl)c2)c1N (stereo not shown) [Example 34, 5-Amino-N-(3-chloro-4-fluorophenyl)-3-(5-(((4-chlorophenyl)sulfonyl)difluoromethyl)-5-hydroxyoctahydropentalen-2-yl)-1-methyl-1H-pyrazole-4-carboxamide] | 10 to 50 | – |
| Cn1nc(C2CC3CC(c4ccccc4)C(O)C3C2)c(C(=O)Nc2ccc(F)c(Cl)c2)c1N (single isomer, unassigned) [Example 144, 5-Amino-N-(3-chloro-4-fluorophenyl)-3-(4-hydroxy-5-phenyloctahydropentalen-2-yl)-1-methyl-1H-pyrazole-4-carboxamide] | – | EC50 (Table 2 ranges, read-out: VL HepAD38 EC50 range): < 100 nM |
| Cn1nc(C2CC3CC4(CNC(=O)N4)CC3C2)c(C(=O)Nc2ccc(F)c(Cl)c2)c1N (stereo not shown) [Example 114, 5-Amino-N-(3-chloro-4-fluorophenyl)-1-methyl-3-(2-oxohexahydro-1′H-spiro[imidazolidine-4,2′-pentalen]-5′-yl)-1H-pyrazole-4-carboxamide] | 50 to 500 | – |
